≈ marks a conversion by molar mass, not a printed value.
What was measured:
[1] = system: Mycobacterium tuberculosis; assay: Antituberculosis activity against Mycobacterium tuberculosis H37Rv by Lowenstein-Jensen method; type: functional
[2] = system: Mycobacterium tuberculosis; assay: Antituberculosis activity against Mycobacterium tuberculosis H37Rv at 6.25 ug/ml by Lowenstein-Jensen method; type: functional
Staphylococcus aureus [3] = assay: Antibacterial activity against Staphylococcus aureus MTCC 96 at 100 ug/disc by paper disc diffusion technique; type: functional; conditions: read-out: IZ
Bacillus cereus [4] = assay: Antibacterial activity against Bacillus cereus MTCC 430 at 100 ug/disc by paper disc diffusion technique; type: functional; conditions: read-out: IZ
Escherichia coli [5] = assay: Antibacterial activity against Escherichia coli MTCC 739 at 100 ug/disc by paper disc diffusion technique; type: functional; conditions: read-out: IZ
Pseudomonas aeruginosa [6] = assay: Antibacterial activity against Pseudomonas aeruginosa MTCC 741 at 100 ug/disc by paper disc diffusion technique; type: functional; conditions: read-out: IZ
Klebsiella pneumoniae [7] = assay: Antibacterial activity against Klebsiella pneumoniae MTCC 109 at 100 ug/disc by paper disc diffusion technique; type: functional; conditions: read-out: IZ
Salmonella typhi [8] = assay: Antibacterial activity against Salmonella typhi MTCC 733 at 100 ug/disc by paper disc diffusion technique; type: functional, Salmonella enterica subsp. enterica serovar Typhi; conditions: Salmonella enterica, read-out: IZ
Proteus vulgaris [9] = assay: Antibacterial activity against Proteus vulgaris MTCC 1771 at 100 ug/disc by paper disc diffusion technique; type: functional; conditions: read-out: IZ
Shigella flexneri [10] = assay: Antibacterial activity against Shigella flexneri MTCC 1457 at 100 ug/disc by paper disc diffusion technique; type: functional; conditions: read-out: IZ
Staphylococcus aureus [11] = assay: Antibacterial activity against Staphylococcus aureus MTCC 96 by agar streak dilution method; type: functional
Bacillus cereus [12] = assay: Antibacterial activity against Bacillus cereus MTCC 430 by agar streak dilution method; type: functional
Escherichia coli [13] = assay: Antibacterial activity against Escherichia coli MTCC 739 by agar streak dilution method; type: functional
Pseudomonas aeruginosa [14] = assay: Antibacterial activity against Pseudomonas aeruginosa MTCC 741 by agar streak dilution method; type: functional
Klebsiella pneumoniae [15] = assay: Antibacterial activity against Klebsiella pneumoniae MTCC 109 by agar streak dilution method; type: functional
Salmonella typhi [16] = assay: Antibacterial activity against Salmonella typhi MTCC 733 by agar streak dilution method; type: functional, Salmonella enterica subsp. enterica serovar Typhi; conditions: Salmonella enterica
Proteus vulgaris [17] = assay: Antibacterial activity against Proteus vulgaris MTCC 1771 by agar streak dilution method; type: functional
Shigella flexneri [18] = assay: Antibacterial activity against Shigella flexneri MTCC 1457 by agar streak dilution method; type: functional
Aspergillus niger [19] = assay: Antifungal activity against Aspergillus niger MTCC 282 at 100 ug/disc by paper disc diffusion technique; type: functional; conditions: read-out: IZ
Aspergillus fumigatus [20] = assay: Antifungal activity against Aspergillus fumigatus MTCC 343 at 100 ug/disc by paper disc diffusion technique; type: functional; conditions: read-out: IZ
Aspergillus clavatus [21] = assay: Antifungal activity against Aspergillus clavatus MTCC 1323 at 100 ug/disc by paper disc diffusion technique; type: functional; conditions: read-out: IZ
Candida albicans [22] = assay: Antifungal activity against Candida albicans MTCC 183 at 100 ug/disc by paper disc diffusion technique; type: functional; conditions: read-out: IZ
Aspergillus niger [23] = assay: Antifungal activity against Aspergillus niger MTCC 282 by agar streak dilution method; type: functional
Aspergillus fumigatus [24] = assay: Antifungal activity against Aspergillus fumigatus MTCC 343 by agar streak dilution method; type: functional
Aspergillus clavatus [25] = assay: Antifungal activity against Aspergillus clavatus MTCC 1323 by agar streak dilution method; type: functional
Candida albicans [26] = assay: Antifungal activity against Candida albicans MTCC 183 by agar streak dilution method; type: functional
[27] = system: Mycobacterium tuberculosis; assay: Antituberculosis activity against Mycobacterium tuberculosis H37Rv by BACTEC MGIT method; type: functional

SMILES | zone of inhibition at 100 µg/disc (Staphylococcus aureus [3]) [mm] | zone of inhibition at 100 µg/disc (Bacillus cereus [4]) [mm] | zone of inhibition at 100 µg/disc (Escherichia coli [5]) [mm] | zone of inhibition at 100 µg/disc (Pseudomonas aeruginosa [6]) [mm] | zone of inhibition at 100 µg/disc (Klebsiella pneumoniae [7]) [mm] | zone of inhibition at 100 µg/disc (Salmonella typhi [8]) [mm] | zone of inhibition at 100 µg/disc (Proteus vulgaris [9]) [mm] | zone of inhibition at 100 µg/disc (Shigella flexneri [10]) [mm] | MIC (Staphylococcus aureus [11]) [µg/mL] | MIC (Bacillus cereus [12]) [µg/mL] | MIC (Pseudomonas aeruginosa [14]) [µg/mL] | MIC (Klebsiella pneumoniae [15]) [µg/mL] | MIC (Salmonella typhi [16]) [µg/mL] | MIC (Proteus vulgaris [17]) [µg/mL] | MIC (Shigella flexneri [18]) [µg/mL] | zone of inhibition at 100 µg/disc (Aspergillus niger [19]) [mm] | zone of inhibition at 100 µg/disc (Aspergillus fumigatus [20]) [mm] | zone of inhibition at 100 µg/disc (Aspergillus clavatus [21]) [mm] | zone of inhibition at 100 µg/disc (Candida albicans [22]) [mm] | MIC (Aspergillus niger [23]) [µg/mL] | also measured
O=C(CSc1nnc(Cn2cnc3ccccc32)o1)Nc1ccccc1 | 12 | < 10 | 13 | 21 | 13 | < 10 | 13 | 13 | 100 (≈ 274 µM) | 100 (≈ 274 µM) | 50 (≈ 137 µM) | 100 (≈ 274 µM) | 100 (≈ 274 µM) | 100 (≈ 274 µM) | 100 (≈ 274 µM) | < 10 | 13 | < 10 | < 10 | 100 (≈ 274 µM) | MIC [1]: 500 µg/mL (≈ 1370 µM); inhibition at 6.25 µg/mL [2]: 95%; MIC (Escherichia coli [13]): 100 µg/mL (≈ 274 µM); MIC (Aspergillus fumigatus [24]): 100 µg/mL (≈ 274 µM); MIC (Aspergillus clavatus [25]): 100 µg/mL (≈ 274 µM); MIC (Candida albicans [26]): 100 µg/mL (≈ 274 µM); MIC [27]: > 6.25 µg/mL
CCOc1ccc(NC(=O)CSc2nnc(Cn3cnc4ccccc43)o2)cc1 | 14 | 18 | 23 | 16 | < 10 | 21 | 25 | 22 | 50 (≈ 122 µM) | 50 (≈ 122 µM) | 100 (≈ 244 µM) | 100 (≈ 244 µM) | 50 (≈ 122 µM) | 12.5 (≈ 30.5 µM) | 25 (≈ 61.1 µM) | 17 | 11 | 16 | 24 | 50 (≈ 122 µM) | MIC [1]: 50 µg/mL (≈ 122 µM); inhibition at 6.25 µg/mL [2]: 98%; MIC (Escherichia coli [13]): 25 µg/mL (≈ 61.1 µM); MIC (Aspergillus fumigatus [24]): 100 µg/mL (≈ 244 µM); MIC (Aspergillus clavatus [25]): 100 µg/mL (≈ 244 µM); MIC (Candida albicans [26]): 25 µg/mL (≈ 61.1 µM); MIC [27]: > 6.25 µg/mL
O=C(CSc1nnc(Cn2cnc3ccccc32)o1)Nc1ccc(I)cc1 | 17 | 15 | 12 | 22 | 23 | 16 | 22 | 20 | 50 (≈ 102 µM) | 100 (≈ 204 µM) | 25 (≈ 50.9 µM) | 50 (≈ 102 µM) | 100 (≈ 204 µM) | 25 (≈ 50.9 µM) | 50 (≈ 102 µM) | < 10 | 17 | 13 | 12 | 100 (≈ 204 µM) | MIC [1]: 250 µg/mL (≈ 509 µM); inhibition at 6.25 µg/mL [2]: 95%; MIC (Escherichia coli [13]): 100 µg/mL (≈ 204 µM); MIC (Aspergillus fumigatus [24]): 100 µg/mL (≈ 204 µM); MIC (Aspergillus clavatus [25]): 100 µg/mL (≈ 204 µM); MIC (Candida albicans [26]): 100 µg/mL (≈ 204 µM); MIC [27]: > 6.25 µg/mL
O=C(CSc1nnc(Cn2cnc3ccccc32)o1)Nc1nc2ccc([N+](=O)[O-])cc2s1 | 21 | 25 | 18 | 16 | 16 | 19 | 15 | 20 | 12.5 (≈ 26.7 µM) | 12.5 (≈ 26.7 µM) | 100 (≈ 214 µM) | 100 (≈ 214 µM) | 50 (≈ 107 µM) | 100 (≈ 214 µM) | 50 (≈ 107 µM) | 23 | 22 | 27 | 15 | 12.5 (≈ 26.7 µM) | MIC [1]: 50 µg/mL (≈ 107 µM); inhibition at 6.25 µg/mL [2]: 98%; MIC (Escherichia coli [13]): 50 µg/mL (≈ 107 µM); MIC (Aspergillus fumigatus [24]): 50 µg/mL (≈ 107 µM); MIC (Aspergillus clavatus [25]): 25 µg/mL (≈ 53.5 µM); MIC (Candida albicans [26]): 100 µg/mL (≈ 214 µM); MIC [27]: > 6.25 µg/mL
N#Cc1ccc(NC(=O)CSc2nnc(Cn3cnc4ccccc43)o2)cc1 | 18 | 19 | 19 | 21 | 24 | 20 | 19 | 17 | 25 (≈ 64 µM) | 50 (≈ 128 µM) | 50 (≈ 128 µM) | 25 (≈ 64 µM) | 50 (≈ 128 µM) | 50 (≈ 128 µM) | 100 (≈ 256 µM) | < 10 | 14 | 13 | 11 | 100 (≈ 256 µM) | MIC [1]: 62.5 µg/mL (≈ 160 µM); inhibition at 6.25 µg/mL [2]: 96%; MIC (Escherichia coli [13]): 50 µg/mL (≈ 128 µM); MIC (Aspergillus fumigatus [24]): 100 µg/mL (≈ 256 µM); MIC (Aspergillus clavatus [25]): 100 µg/mL (≈ 256 µM); MIC (Candida albicans [26]): 100 µg/mL (≈ 256 µM); MIC [27]: > 6.25 µg/mL
CC(=O)N1CCN(c2ccc(OCC3COC(Cn4ccnc4)(c4ccc(Cl)cc4Cl)O3)cc2)CC1 (centres undefined) [KETOCONAZOLE] |  |  |  |  |  |  |  |  |  |  |  |  |  |  |  | 30 | 29 | 31 | 33 | 1.56 (≈ 2.94 µM) | MIC (Aspergillus fumigatus [24]): 0.78 µg/mL (≈ 1.47 µM); MIC (Aspergillus clavatus [25]): 0.78 µg/mL (≈ 1.47 µM); MIC (Candida albicans [26]): 1.56 µg/mL (≈ 2.94 µM)
O=C(O)c1cn(C2CC2)c2cc(N3CCNCC3)c(F)cc2c1=O [CIPROFLOXACIN] | 30 | 31 | 32 | 33 | 33 | 30 | 31 | 32 | 1.56 (≈ 4.71 µM) | 0.39 (≈ 1.18 µM) | 0.78 (≈ 2.35 µM) | 0.78 (≈ 2.35 µM) | 0.39 (≈ 1.18 µM) | 0.39 (≈ 1.18 µM) | 1.56 (≈ 4.71 µM) |  |  |  |  |  | 
NNC(=O)c1ccncc1 [ISONIAZID] |  |  |  |  |  |  |  |  |  |  |  |  |  |  |  |  |  |  |  |  | MIC [27]: 0.2 µg/mL (≈ 1.46 µM)
